This note sets out measurements from patent publication US11986532B2 (Arvinas Operations, Inc., priority 2021, dated 2024).

Like-named read-outs stand apart in the source and are kept apart here.

This assay has as its target T1, BCL6 (Homo sapiens, UniProt P41182).
T1 construct: endogenous in cells; host or cells: T47D breast cancer epithelial cells
The assay is described as follows: Immunofluorescence protocol for high content imaging of BCL6 (degradation) in T47D cells, 3 days compound treatment. Type of assay: cell-based. Conditions: for Dmax: read-out: Mean Dmax (%)** category; for DC50: read-out: Mean DC50 (nM)* category. The essentials:
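High content immunofluorescence imaging (10×, 4 fields/well) of BCL6 using rabbit primary antibody, Alexa-488 secondary, cell mask and Hoechst nuclear stain after PFA fixation. Before staining, T47D cells (7K/well) were exposed for 3 days at 37° C to 3-fold serial dilutions of compound, top final concentration 0.1 or 1 μM.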

[1] abbreviates: T47D cells, 3 days compound treatment.

With `CNC(=O)COc1cc2cc(Nc3nc(N4CCC(O[C@H]5C[C@H](N6CC7CCC(C6)N7c6ccc7c(c6)C(=O)N(C6CCC(=O)NC6=O)C7=O)C5)CC4)ncc3Cl)ccc2n(C(C)C)c1=O` (some centres unmarked) [Compound 370, 2-({6-[(5-chloro-2-{4-[(1r,3r)-3-{8-[2-(2,6-dioxopiperidin-3-yl)-1,3-dioxo-2,3-dihydro-1H-isoindol-5-yl]-3,8-diazabicyclo[3.2.1]octan-3-yl}cyclobutoxy]piperidin-1-yl}pyrimidin-4-yl)amino]-2-oxo-1-(propan-2-yl)-1,2-dihydroquinolin-3-yl}oxy)-N-methylacetamide], the DC50 lay in the range of 10 to 50 nM. In addition, for the setting “T47D”, the Dmax was less than 50%.

On to `CNC(=O)COc1cc2cc(Nc3nc(N4CCC(O[C@H]5C[C@H](N6CCN(c7cc8c(cc7F)C(=O)N(C7CCC(=O)NC7=O)C8=O)[C@H](C)C6)C5)CC4)ncc3Cl)ccc2n(C(C)C)c1=O` (stereo partly drawn) [Compound 408, 2-({6-[(5-chloro-2-{4-[(1r,3r)-3-[(3R)-4-[2-(2,6-dioxopiperidin-3-yl)-6-fluoro-1,3-dioxo-2,3-dihydro-1H-isoindol-5-yl]-3-methylpiperazin-1-yl]cyclobutoxy]piperidin-1-yl}pyrimidin-4-yl)amino]-2-oxo-1-(propan-2-yl)-1,2-dihydroquinolin-3-yl}oxy)-N-methylacetamide], for which the DC50 lay in the range of 50 to 100 nM. For the setting “T47D”, the greatest degradation seen (Dmax) fell in the range of 50 to 70%.

Turning to `CNC(=O)COc1cc2cc(Nc3nc(N4CCN(CC5CCC6(CC5)CN(c5cc7c(cc5F)C(=O)N(C5CCC(=O)NC5=O)C7)C6)CC4)ncc3Cl)ccc2n(C(C)C)c1=O` (centres unmarked) [Compound 306, 2-{[6-({5-chloro-2-[4-({2-[2-(2,6-dioxopiperidin-3-yl)-6-fluoro-1-oxo-2,3-dihydro-1H-isoindol-5-yl]-2-azaspiro[3.5]nonan-7-yl}methyl)piperazin-1-yl]pyrimidin-4-yl}amino)-2-oxo-1-(propan-2-yl)-1,2-dihydroquinolin-3-yl]oxy}-N-methylacetamide], the half-maximal degradation concentration (DC50) is less than 10 nM. Further, for the setting “T47D”, the maximal degradation (Dmax) lay within 50 to 70%.

`CNC(=O)COc1cc2c(F)c(Nc3nc(N4CCC(CN5CCC6(CC5)CN(c5ccc7c(c5)C(=O)N(C5CCC(=O)NC5=O)C7=O)C6)CC4)ncc3Cl)ccc2n(C(C)C)c1=O` (centres unmarked) [Compound 347, 2-{[6-({5-chloro-2-[4-({2-[2-(2,6-dioxopiperidin-3-yl)-1,3-dioxo-2,3-dihydro-1H-isoindol-5-yl]-2,7-diazaspiro[3.5]nonan-7-yl}methyl)piperidin-1-yl]pyrimidin-4-yl}amino)-5-fluoro-2-oxo-1-(propan-2-yl)-1,2-dihydroquinolin-3-yl]oxy}-N-methylacetamide]: the DC50 is less than 10 nM. Besides, the Dmax (T47D) was not below 70%.

As for `CNC(=O)COc1cc2cc(Nc3nc(N4CCC(CN5CCC6(CC5)CN(c5ccc7c(c5C)C(=O)N(C5CCC(=O)NC5=O)C7=O)C6)CC4)ncc3Cl)ccc2n(C(C)C)c1=O` (centres unmarked) [Compound 358, 2-{[6-({5-chloro-2-[4-({2-[2-(2,6-dioxopiperidin-3-yl)-4-methyl-1,3-dioxo-2,3-dihydro-1H-isoindol-5-yl]-2,7-diazaspiro[3.5]nonan-7-yl}methyl)piperidin-1-yl]pyrimidin-4-yl}amino)-2-oxo-1-(propan-2-yl)-1,2-dihydroquinolin-3-yl]oxy}-N-methylacetamide], the DC50 is less than 10 nM. The Dmax (T47D) is 50 to 70%.

In the case of `CNC(=O)COc1cc2cc(Nc3nc(N4CCC(O[C@H]5C[C@H](N6CCC(c7ccc8c(c7C)C(=O)N(C7CCC(=O)NC7=O)C8=O)CC6)C5)CC4)ncc3Cl)ccc2n(C(C)C)c1=O` (some centres unmarked) [Compound 167, 2-({6-[(5-chloro-2-{4-[(1r,3r)-3-{4-[2-(2,6-dioxopiperidin-3-yl)-4-methyl-1,3-dioxo-2,3-dihydro-1H-isoindol-5-yl]piperidin-1-yl}cyclobutoxy]piperidin-1-yl}pyrimidin-4-yl)amino]-2-oxo-1-(propan-2-yl)-1,2-dihydroquinolin-3-yl}oxy)-N-methylacetamide], under setting [1], the 50% degradation concentration (DC50) was less than 10 nM and the Dmax is not below 70%.

Regarding `CNC(=O)COc1cc2cc(Nc3nc(N4CCC(O[C@H]5C[C@H](N6CCN(c7c(OC)cc8c(c7C)C(=O)N(C7CCC(=O)NC7=O)C8=O)CC6)C5)CC4)ncc3Cl)ccc2n(C(C)C)c1=O` (some centres unmarked) [Compound 266, 2-({6-[(5-chloro-2-{4-[(1r,3r)-3-{4-[2-(2,6-dioxopiperidin-3-yl)-6-methoxy-4-methyl-1,3-dioxo-2,3-dihydro-1H-isoindol-5-yl]piperazin-1-yl}cyclobutoxy]piperidin-1-yl}pyrimidin-4-yl)amino]-2-oxo-1-(propan-2-yl)-1,2-dihydroquinolin-3-yl}oxy)-N-methylacetamide], the DC50 is less than 10 nM. For the setting “T47D”, the Dmax is not below 70%.

Take `CNC(=O)COc1cc2cc(Nc3nc(N4CCC(O[C@H]5C[C@H](N6CC[C@@H](c7ccc8c(c7F)CN([C@@H]7CCC(=O)NC7=O)C8=O)C(C)(C)C6)C5)CC4)ncc3Cl)ccc2n(C(C)C)c1=O` [Compound 396, 2-({6-[(5-chloro-2-{4-[(1r,3r)-3-[(4R)-4-{2-[(3R)-2,6-dioxopiperidin-3-yl]-4-fluoro-1-oxo-2,3-dihydro-1H-isoindol-5-yl}-3,3-dimethylpiperidin-1-yl]cyclobutoxy]piperidin-1-yl}pyrimidin-4-yl)amino]-2-oxo-1-(propan-2-yl)-1,2-dihydroquinolin-3-yl}oxy)-N-methylacetamide]: the 50% degradation concentration (DC50) is less than 10 nM. Further, where the note is “T47D”, the Dmax was not below 70%.

Take `CC(C)n1c(=O)c(OCC(=O)N(C)C)cc2cc(Nc3nc(N4CCC(CN5CCC6(CC5)CN(c5ccc7c(c5)C(=O)N(C5CCC(=O)NC5=O)C7=O)C6)CC4)ncc3Cl)ccc21` (centres unmarked) [Compound 55, 2-{[6-({5-chloro-2-[4-({2-[2-(2,6-dioxopiperidin-3-yl)-1,3-dioxo-2,3-dihydro-1H-isoindol-5-yl]-2,7-diazaspiro[3.5]nonan-7-yl}methyl)piperidin-1-yl]pyrimidin-4-yl}amino)-2-oxo-1-(propan-2-yl)-1,2-dihydroquinolin-3-yl]oxy}-N,N-dimethylacetamide]: under setting [1], the DC50 is not below 100 nM and the maximal degradation (Dmax) was not below 70%.

Take `CNC(=O)COc1cc2cc(Nc3nc(N4CCC(C(C)(C)N5CCC6(CC5)CN(c5ccc7c(c5)C(=O)N(C5CCC(=O)NC5=O)C7=O)C6)CC4)ncc3Cl)ccc2n(C(C)C)c1=O` (centres unmarked) [Compound 45]: under setting [1], the DC50 is less than 10 nM and the greatest degradation seen (Dmax) lay in the range of 50 to 70%.

For the compound `CNC(=O)COc1cc2cc(Nc3nc(N4CCC(O[C@H]5C[C@H](N6CCN(c7cc(F)c8c(c7F)CN(C7CCC(=O)NC7=O)C8=O)CC6)C5)CC4)ncc3Cl)ccc2n(C(C)C)c1=O` (some centres unmarked) [Compound 273, 2-({6-[(5-chloro-2-{4-[(1r,3r)-3-{4-[2-(2,6-dioxopiperidin-3-yl)-4,7-difluoro-1-oxo-2,3-dihydro-1H-isoindol-5-yl]piperazin-1-yl}cyclobutoxy]piperidin-1-yl}pyrimidin-4-yl)amino]-2-oxo-1-(propan-2-yl)-1,2-dihydroquinolin-3-yl}oxy)-N-methylacetamide], the DC50 was less than 10 nM. The Dmax (T47D) lay within 50 to 70%.

Consider `CNC(=O)COc1cc2cc(Nc3nc(N4CCC(O[C@H]5C[C@H](N6CCC(c7cc8c(cn7)C(=O)N(C7CCC(=O)NC7=O)C8)CC6)C5)CC4)ncc3Cl)ccc2n(C(C)C)c1=O` (some centres unmarked) [Compound 219, 2-({6-[(5-chloro-2-{4-[(1r,3r)-3-{4-[2-(2,6-dioxopiperidin-3-yl)-3-oxo-1H,2H,3H-pyrrolo[3,4-c]pyridin-6-yl]piperidin-1-yl}cyclobutoxy]piperidin-1-yl}pyrimidin-4-yl)amino]-2-oxo-1-(propan-2-yl)-1,2-dihydroquinolin-3-yl}oxy)-N-methylacetamide], for which the DC50 was less than 10 nM. Where the note is “T47D”, the maximal degradation (Dmax) is 50 to 70%.

`CNC(=O)COc1cc2cc(Nc3nc(N4CCC(OC5CCC6(CC5)CN(c5ccc7c(c5Cl)CN(C5CCC(=O)NC5=O)C7=O)C6)CC4)ncc3Cl)ccc2n(C(C)C)c1=O` (centres unmarked) [Compound 383, 2-{[6-({5-chloro-2-[4-({2-[4-chloro-2-(2,6-dioxopiperidin-3-yl)-1-oxo-2,3-dihydro-1H-isoindol-5-yl]-2-azaspiro[3.5]nonan-7-yl}oxy)piperidin-1-yl]pyrimidin-4-yl}amino)-2-oxo-1-(propan-2-yl)-1,2-dihydroquinolin-3-yl]oxy}-N-methylacetamide]: the DC50 was less than 10 nM. Under “T47D”, the Dmax is not below 70%.

Regarding `CCc1c(N2CCN([C@H]3C[C@H](OC4CCN(c5ncc(Cl)c(Nc6ccc7c(c6)cc(OCC(=O)NC)c(=O)n7C(C)C)n5)CC4)C3)CC2)ccc2c1C(=O)N(C1CCC(=O)NC1=O)C2=O` (some centres unmarked) [Compound 200, 2-({6-[(5-chloro-2-{4-[(1r,3r)-3-{4-[2-(2,6-dioxopiperidin-3-yl)-4-ethyl-1,3-dioxo-2,3-dihydro-1H-isoindol-5-yl]piperazin-1-yl}cyclobutoxy]piperidin-1-yl}pyrimidin-4-yl)amino]-2-oxo-1-(propan-2-yl)-1,2-dihydroquinolin-3-yl}oxy)-N-methylacetamide], under setting [1], the DC50 lay in the range of 10 to 50 nM and the Dmax is not below 70%.

As to `CNC(=O)COc1cc2cc(Nc3nc(N4CCC(O[C@H]5C[C@H](N6CCC(c7cc8c(c(OC)c7)C(=O)N(C7CCC(=O)NC7=O)C8)CC6)C5)CC4)ncc3Cl)ccc2n(C(C)C)c1=O` (some centres unmarked) [Compound 103, 2-({6-[(5-chloro-2-{4-[(1r,3r)-3-{4-[2-(2,6-dioxopiperidin-3-yl)-7-methoxy-1-oxo-2,3-dihydro-1H-isoindol-5-yl]piperidin-1-yl}cyclobutoxy]piperidin-1-yl}pyrimidin-4-yl)amino]-2-oxo-1-(propan-2-yl)-1,2-dihydroquinolin-3-yl}oxy)-N-methylacetamide], under setting [1], the DC50 was less than 10 nM and the Dmax fell in the range of 50 to 70%.

Turning to `CNC(=O)COc1cc2cc(Nc3nc(N4CCC(O[C@H]5C[C@H](N6CCN(c7ccc8c(c7F)CN(C7CCC(=O)NC7=O)C8=O)[C@H](C)C6)C5)CC4)ncc3Cl)ccc2n(C(C)C)c1=O` (some centres unmarked) [Compound 175], under setting [1], the DC50 is less than 10 nM and the maximal degradation (Dmax) is not below 70%.
